Values quoted from earlier work, collected in patent US12653874B2, “Nant cancer vaccine” (NantCell, Inc., priority 2016, dated 2026).

Assays:
advanced melanoma = conditions: unresectable or advanced melanoma, result in words
[1] = patients receiving treatment (Conroy 2011)

FOLFIRINOX
median OS (pancreatic cancer; [1]): 11.1 months
median PFS (pancreatic cancer; [1]): 6.4 months
OS and PFS versus gemcitabine monotherapy (pancreatic cancer; result in words): improves OS and PFS over monotherapy with gemcitabine

rituximab: anti-CD20 antibody
response rate to single agent retreatment (CD20-positive NHL; rituximab refractory (RR) patients, reasonable estimate, trial data not reported): < 5%
patients responding to retreatment (CD20-positive NHL; rituximab sensitive (RS) patients): approximately 40%

CC(C)(C)c1nc(-c2cccc(NS(=O)(=O)c3c(F)cccc3F)c2F)c(-c2ccnc(N)n2)s1 [Dabrafenib]
PFS (advanced melanoma): improvement in PFS when compared to dacarbazine
